Experimental data reported in ChEMBL document CHEMBL6182916, “Unexpected Discovery of a Novel Triphenylphosphonium Alkylalcohol That Triggers Cancer Cell Death via Mitophagy and Ferroptosis” (J Med Chem, 2025).
Activity calls are given as the source filed them. No cut-off for these calls is given here.

Key:
[1] = system: HCC827; test: Downregulation of VDAC1 expression level in human HCC827 cells 0.5 uM incubated for 3 to 24 hrs in presence of BFA by Western blot analysis; format: functional, cell-based; details: time 3-24 hrs
[2] = molecular target: T1, Heat shock protein 75 kDa, mitochondrial (Homo sapiens) (UniProt Q12931); test: Inhibition of human TRAP1 assessed as fold increase in ATPase activity at 20 uM
T1 sequence (whole entry): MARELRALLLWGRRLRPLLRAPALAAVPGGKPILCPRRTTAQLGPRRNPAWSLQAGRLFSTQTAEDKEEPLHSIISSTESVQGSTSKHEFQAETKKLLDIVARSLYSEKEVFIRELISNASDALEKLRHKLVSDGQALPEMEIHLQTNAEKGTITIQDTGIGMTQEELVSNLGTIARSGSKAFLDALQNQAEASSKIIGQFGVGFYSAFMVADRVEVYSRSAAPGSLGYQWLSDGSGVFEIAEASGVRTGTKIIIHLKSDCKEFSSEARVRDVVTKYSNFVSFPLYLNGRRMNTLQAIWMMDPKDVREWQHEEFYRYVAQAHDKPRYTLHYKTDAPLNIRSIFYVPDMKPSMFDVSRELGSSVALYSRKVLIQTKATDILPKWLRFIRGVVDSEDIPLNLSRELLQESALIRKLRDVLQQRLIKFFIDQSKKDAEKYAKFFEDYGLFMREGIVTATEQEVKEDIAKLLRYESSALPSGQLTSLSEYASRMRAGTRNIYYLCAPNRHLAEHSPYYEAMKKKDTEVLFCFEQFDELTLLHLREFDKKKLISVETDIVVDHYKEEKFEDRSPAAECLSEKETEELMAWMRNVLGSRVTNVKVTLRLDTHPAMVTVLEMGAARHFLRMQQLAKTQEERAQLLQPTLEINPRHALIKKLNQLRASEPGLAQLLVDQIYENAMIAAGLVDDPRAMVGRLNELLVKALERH

[3] = system: HCC827; test: Downregulation of TOMM20 expression level in human HCC827 cells at 0.5 uM incubated for 24 hrs in presence of Baf A1 by Western blot analysis; format: functional, cell-based
[4] = system: HCC827; test: Induction of ferroptosis in human HCC827 cells assessed as decrease in glutathione reductase activity at 0.25 to 0.5 uM incubated for 24 hrs by DTNB solution based based microplate reader analysis; format: functional, cell-based; details: dose 0.25-0.5 µM
[5] = system: HCC827; test: Antiproliferative activity against human HCC827 cells assessed as cell viability measured after 48 hrs by MTT assay; format: functional, cell-based; details: HCC827, 48 h
[6] = system: HCC827; test: Induction of ROS generation in human HCC827 cells at 1 uM incubated for 4 hrs in presence of VC by DCFH-DA staining based by absorbance based laser confocal microscopic analysis; format: functional, cell-based
[7] = system: HEK-293T; test: Inhibition of colony formation in HEK293T cells at 0.05 to 0.1 uM incubated for 72 hrs by crystal violet staining based analysis; format: functional, cell-based; details: Homo sapiens, dose 0.05-0.1 µM
[8] = system: HCC827; test: Induction of apoptosis in human HCC827 cells assessed as late apoptotic cells at 1 uM measured after 36 hrs by annexin V and PI staining based flow cytometry analysis (reference value: 2.18%); format: functional
[9] = system: HCC827; test: Antitumor activity against human HCC827 cells xenografted in female nude mouse model assessed as reduction in tumor size at 5 to 10 mg/kg, ip measured every two days for 14 days; format: functional, organism-based; details: dose 5-10 mg/kg, time 14.0 day
[10] = system: HCC827; test: Induction of apoptosis in human HCC827 cells assessed as necrotic cells at 0.25 uM measured after 48 hrs by annexin V and PI staining based flow cytometry analysis (reference value: 1.18%); format: functional
[11] = system: HCC827; test: Inhibition of cell migration in human HCC827 cells by wound healing assay; format: functional, cell-based; details: dose 0.05-0.1 µM
[12] = system: HCC827; test: Induction of apoptosis in human HCC827 cells assessed as viable cells at 1 uM measured after 24 hrs by annexin V and PI staining based flow cytometry analysis (reference value: 95.10%); format: functional; details: read-out: Activity
[13] = system: HCC827; test: Downregulation of VDAC1 expression level in human HCC827 cells 0.5 uM by Western blot analysis; format: functional, cell-based; details: time 3-24 hrs
[14] = system: HCC827; test: Induction of apoptosis in human HCC827 cells assessed as early apoptotic cells at 1 uM measured after 24 hrs by annexin V and PI staining based flow cytometry analysis (reference value: 1.80%); format: functional
[15] = system: HCC827; test: Antiproliferative activity against human HCC827 cells assessed as cell viability preincubated with FMK followed by compound addition and measured after 48 hrs by MTT assay; format: functional, cell-based
[16] = system: HCC827; test: Downregulation of HK-2 expression level in human HCC827 cells 0.5 uM incubated for 3 to 24 hrs in presence of BFA by Western blot analysis; format: functional, cell-based; details: time 3-24 hrs
[17] = system: HeLa; test: Induction of mitophagy in human HeLa cells assessed as colocalization of mitochondria and lysosomes at 0.5 uM by mitoGFP staining based confocal microscopy analysis; format: functional, cell-based
[18] = Toxicity in female BALB/c mouse assessed as animal death at 30 mg/kg, ip measured for 7 days; format: organism-based; details: in vivo, 168 h, time 7 day
[19] = system: BEAS-2B; test: Induction of mitochondrial dysfunction in human BEAS-2B cells assessed as decrease in ATP production at 0.125 to 5 uM incubated for 4 hrs by Seahorse XF96 extracellular flux analyzer; format: functional, cell-based; details: dose 0.125-5 µM
[20] = Toxicity in female BALB/c mouse assessed as histopathological changes in spleen at 30 mg/kg, ip measured for 7 days by H and E staining based analysis; format: organism-based; details: in vivo, 168 h, time 7 day
[21] = system: HCC827; test: Induction of ferroptosis in human HCC827 cells assessed as decrease in GSH level incubated for 24 hrs by absorbance based analysis; format: functional, cell-based; details: dose 0.5-2 µM
[22] = system: HCC827; test: Induction of ROS generation in human HCC827 cells assessed as fold change at 1 uM incubated for 4 hrs in presence of VC by DCFH-DA staining based by absorbance based laser confocal microscopic analysis (reference value: 2.67); format: functional
[23] = system: HCC827; test: Induction of apoptosis in human HCC827 cells assessed as late apoptotic cells at 1 uM measured after 48 hrs by annexin V and PI staining based flow cytometry analysis (reference value: 1.29%); format: functional
[24] = system: HCC827; test: Antiproliferative activity against human HCC827 cells assessed as increase in cell viability at 1 uM measured after 48 hrs in presence of Rapa by MTT assay; format: functional, cell-based
[25] = system: HCC827; test: Induction of ferroptosis in human HCC827 cells assessed as decrease in xCT expression incubated for 24 hrs; format: functional, cell-based; details: dose 0.25-0.5 µM
[26] = system: HeLa; test: Induction of mitophagy in human HeLa cells harbouring mCherry-GFP tag assessed as visible mCherry fluorescence at 0.5 uM incubated for 24 hrs by confocal microscopy analysis; format: functional, cell-based
[27] = system: HCC827; test: Induction of ferroptosis in human HCC827 cells assessed as increase in MDA content incubated for 24 hrs by absorbance based analysis; format: functional, cell-based; details: dose 0.25-0.5 µM
[28] = system: Mitochondrial membrane; test: Induction of mitochondrial membrane depolarization in human BEAS-2B cells assessed as JC-1 monomer ratio by measuring increase green fluorescence at 0.25 uM incubated for 4 hrs by JC-1 staining based confocal microscopy analysis; format: cell membranes
[29] = system: HCC827; test: Induction of mitophagy in human HCC827 cells assessed as increase in LC3-II/LC-3-I ratio at 0.5 uM measured after 24 hrs in presence of Baf A1 by Western blot analysis; format: functional, cell-based

SMILES: Cc1ccc([P+](CCCCCCCCCCO)(c2ccc(C)cc2)c2ccc(C)cc2)cc1.[Br-]
- Activity [1]: inactive
- fold change (FC) [2]: 2
- Activity [3]: inactive
- Activity [4]: Active
- IC50 [5]: 120 nM
- Activity [6]: inactive
- inhibition [7]: Minimal_effect
- Activity [8]: 0.32%
- Activity [9]: Active
- Activity [10]: 2.91%
- inhibition [11]: Dose-dependent-effect
- viability at 1 µM [12]: 93.6%
- Activity [13]: Time-dependent-effect
- Activity [14]: 1.17%
- IC50 [15]: 110 nM
- Activity [16]: inactive
- Activity [17]: Active
- Activity [18]: Non-toxic
- Activity [19]: Minimal_effect
- Activity [20]: Non-toxic
- Activity [21]: Dose-dependent-effect
- Activity [22]: 0.8
- Activity [23]: 9.96%
- Activity [24]: inactive
- Activity [25]: Dose-dependent-effect
- Activity [26]: Active
- Activity [27]: Dose-dependent-effect
- Activity [28]: inactive
- Activity [29]: inactive
